{"source": "patent US20070225213A1", "about": "“Nucleic acid carriers for delivery of therapeutic agents” (priority 2006, published 2007)", "key": {"[1]": {"system": "BHK21", "experiment": "Cell uptake by MTN fluorescence EX620/EM680 (Examples 10 and 13, EX051605)", "assay_type": "cell-based, hamster", "settings": "10% w/w loading in DNA", "procedure": "Materials: HSGDNA, MTN, ODNAS1116 (phosphorothioated, single stranded DNA, and Beta-cyclodextrin polymer (BCD-SBE, KKBIOMED Inc.) were previously prepared in water at 10 mg/ml, 1 mg/ml, 0.95 mg/ml, and 10 mg/ml respectively.\nProcedure: For NAC-MTN, combined 37 ul HSGDNA (herring genomic DNA, Promega Inc.), 1426 ul HBSS( Hank's buffered saline, Sigma-Aldrich), with 37 ul of MTN, followed by 1500 ul 2× DMEM media to give 3 ml final and 24 uM (24 micro-molar) MTN and 10% w/w drug loading of MTN. For NAC-MTN (AR1505) combined 62 ul of HSDNA (deg. herring sperm DNA, Sigma) with 2377 ul HBSS, 61.7 ul MTN, 2500 ul 2× media to give 5 ml final and 24 uM MTN and 10% w/w drug loading of MTN to HSDNA. […]\nPlate#1 Media was aspirated and cells treated with 100 ul of either NAC-MTN, CD-MTN, or MTN at 24 uM MTN final or 12.3 ug/ml MTN in all samples. Samples containing MTN were incubated 4 hours, removed, and fluorescence taken at EX620/EM680. […]\nSamples were incubated 4 hours, removed, and MTN fluorescence taken at EX620/EM680. […] Average MTN fluorescence was averaged from 6 wells. For each cell type, MTN fluorescence was highest in MTN treated cells, followed by CD-MTN, and lowest in NAC-MTN. […]\nPLATE#2: Dispensed 50 ul from source plate into plate #2 to give 150 ul final vol 4.1 ug/ml, 8 uMfinal per well, pre-read fluorescence w samples (bkgd) incubated 5 hr, removed, replaced w/ media, read fluor. […]"}, "[2]": {"system": "COS7", "experiment": "Effect of plating time on uptake of NAC-MTN and MTN, fluorescence (Example 11)", "assay_type": "cell-based, green monkey", "procedure": "The effect of plating time on the differential rates of uptake between NAC-MTN and MTN were assayed in cells treated <1 hour and 24 hours after plating.\nOn day 1, MCF7, COS7, 3T3, and BHK21 cells were plated out in a standard tissue culture plate. After incubation of 20 minutes samples were added to cells in rows A, C, E, and G. Cells were incubated at 37C in a standard atmosphere of 5%CO2.\nOn day 2, samples were added to rows D, F, and H and the fluorescence was obtained EX620/EM680 S=80. Samples were removed from A,C,E and G, replaced with media and fluorescence read again. On day 2 observed significant drug toxicity in cells of rows A,C, E, G. Sample addition was postponed in row B since MCF7 were not yet confluent.\nOn day 3, added samples to cells in row B containing confluent MCF7's, removed samples from rows D, F, and H replaced with media and read fluorescence.\nFluorescence data from cells taken after removal of media was used to quantitate total MTN retained in the cells. Fluorescence data were converted to mg/ml MTN using a standard curve prepared with free MTN or NAC-MTN.\nThe percentage difference in fluorescence between cells treated with NAC-MTN or MTN alone was used to compare relative drug uptake.\nThe MTN fluorescence ratios were obtained by dividing MTN fluorescence of cells incubated for 24 hours by fluorescence of cells incubated 30 minutes. […] The uptake in BHK21 was roughly equivalent for NAC-MTN regardless of plate adherence, however it should be noted that BHK21 adhere very rapidly to the plate.\nFluorescence data were converted to micromolar drug concentrations (uM MTN) using a standard curve for either nucleic acid bound or unbound drug, and drug uptake ratios were obtained by dividing the t(24 hour)/t(30 min.). The ratios of absolute drug concentration per well show more dramatic differences in uptake as shown below."}, "[3]": {"settings": "in vivo, iv", "quoted_text": "Differential targeting and distribution of NAC-MTN or MTN in major organs of the mouse. NAC-MTN or MTN was administered intravenously to mice and detected in major organs after 24 hours. […] Total MTN in tissues was quantified by MTN fluorescence, normalized against total tissue weight, and reported as MTN mg/g tissue.\nMice n=2, were injected i.v. with repeated dose of either NAC-MTN or MTN alone. MTN administered was the same for each mouse.\nA 0.4 ml volume of each NAC-MTN or MTN formulation was prepared for injection in HBSS or H2O (Hanks Buffered Saline, Sigma-Aldrich) as indicated below. For NAC-MTN injection, 45 ul 10 mg/ml MTN was diluted first in 325 ul of HBSS solution, then 180 ul of herring sperm DNA (HSDNA, 50 mg/ml stock neutralized, 0.2 um filtered) was added to give a turquoise blue color. […] In MTN injection, 45 ul 10 mg/ml MTN was diluted in 385 ul of H2O.\nOn day 1, white mice, n=2, 24 g each, were tail vein injected by a micro-catheter with 0.16 ml at 14:50 or 0.15 ml at 15:30, respectively of either NAC-MTN or MTN. A second injection was followed at 17:00 and 16:50 of 0.2 ml each of NAC-MTN or MTN. To quantify total MTN retained, mouse urine was collected after 1st and 2nd injection. Total MTN was assayed in mouse urine immediately after 1st injection and second injection by reading MTN fluorescence 620/680 s=50 of a 0.2 ml sample in a styrene well, bottom read. […] A third dose of 0.2 ml was given the next morning, 22 hours after 1st injection (day 2), of either NAC-MTN or MTN. […] Twenty four hours after first injection (day 2), mice were sacrificed and MTN assayed in major organs. The liver, kidneys, heart, and lung were homogenized at high speed 50,000 rpm, and treated with 1% SDS (sodium dodecyl sulfate). The homogenates were frozen twice and centrifuged for 30 minutes at 14000 rcf."}}}
{"smiles": "O=C1c2c(O)ccc(O)c2C(=O)c2c(NCCNCCO)ccc(NCCNCCO)c21", "note": "[MTN, mitoxantrone]", "values": [{"measurement": "% reduction in fluorescence relative to MTN alone (MTN = 0%)", "setting": "[1]; Plate#1, 24 uM MTN, 4 hours", "result": 0, "unit": "%"}, {"measurement": "% reduction in fluorescence relative to MTN alone (MTN = 0%)", "setting": "[1]; Plate#2, 8 uM MTN", "result": 0, "unit": "%"}, {"measurement": "MTN FLUOR Ratio of t(24)/t(<1)", "setting": "[2]", "result": 0.70}, {"measurement": "FLUOR (MTN fluorescence in cells)", "setting": "[2]; cells treated 24 hour after plating", "result": 15289}, {"measurement": "FLUOR (MTN fluorescence in cells)", "setting": "[2]; cells treated <1 hour after plating", "result": 13814}, {"measurement": "Ratio uM MTN of t(24)/t(<1)", "setting": "[2]; from standard curve for bound or unbound drug", "result": 1.2}, {"measurement": "toxic effects in mouse", "setting": "[3]", "result": "Neither mouse showed any toxic effects"}]}
